Values after ≈ are worked out from the molar mass of the structure shown. Where two headings read alike, the source gives them in different places.
Experiments:
LZK [1] = biological target: T1, LZK (Homo sapiens, UniProt O43283); test: LZK inhibition in cells monitored by downstream JNK phosphorylation (dox-induced LZK); assay type: cell-based; set-up: V5 (named only in the vector); expressed in transfected cells; host or cells: CAL33 HNSCC cells, lentiviral T-REx system, induced with doxycycline
T1 sequence (O43283 1-966): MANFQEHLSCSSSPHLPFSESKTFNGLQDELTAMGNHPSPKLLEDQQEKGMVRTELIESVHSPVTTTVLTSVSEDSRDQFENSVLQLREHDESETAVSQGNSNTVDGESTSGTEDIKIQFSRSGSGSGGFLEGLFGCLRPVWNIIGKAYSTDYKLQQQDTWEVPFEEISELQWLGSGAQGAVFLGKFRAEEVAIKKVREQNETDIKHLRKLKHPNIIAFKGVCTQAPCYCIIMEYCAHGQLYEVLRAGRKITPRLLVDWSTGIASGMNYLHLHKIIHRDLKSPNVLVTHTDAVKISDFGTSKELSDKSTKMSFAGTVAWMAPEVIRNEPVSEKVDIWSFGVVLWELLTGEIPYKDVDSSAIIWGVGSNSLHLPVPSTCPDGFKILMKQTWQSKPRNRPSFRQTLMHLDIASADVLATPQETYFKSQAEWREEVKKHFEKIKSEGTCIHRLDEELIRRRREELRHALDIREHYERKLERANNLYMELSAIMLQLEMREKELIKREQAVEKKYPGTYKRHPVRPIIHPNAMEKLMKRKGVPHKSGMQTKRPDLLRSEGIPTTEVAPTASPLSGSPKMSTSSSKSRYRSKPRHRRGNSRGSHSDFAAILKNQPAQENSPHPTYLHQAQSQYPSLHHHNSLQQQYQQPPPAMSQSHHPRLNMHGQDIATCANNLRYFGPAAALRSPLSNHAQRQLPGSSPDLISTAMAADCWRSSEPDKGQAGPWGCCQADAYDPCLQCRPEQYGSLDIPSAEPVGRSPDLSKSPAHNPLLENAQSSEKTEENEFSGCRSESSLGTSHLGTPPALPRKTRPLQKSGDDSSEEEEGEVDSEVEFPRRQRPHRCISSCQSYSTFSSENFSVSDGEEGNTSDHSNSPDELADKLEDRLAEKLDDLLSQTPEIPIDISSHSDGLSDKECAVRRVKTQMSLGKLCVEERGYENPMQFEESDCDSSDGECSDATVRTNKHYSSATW
Excerpt: (§1) The ViraPower HiPerform T-REx Gateway Expression System (Invitrogen) was used to generate cells with tetracycline-inducible expression of LZK. In brief, wild-type (WT) or drug-resistant mutant (Q240S) LZK (cloned into pLenti6.3/TO/V5-DEST vector) and pLenti3.3/TR (for tetracycline repressor expression) were transfected into 293FT cells using Lipofectamine 2000 to generate lentiviral stock. Cell lines were generated by antibiotic selection (blasticidin [Gibco] and geneticin [Gibco]). Doxycycline (Sigma-Aldrich) was used at 1 μg/mL to induce LZK expression.
(§2) Generally, cells were plated in six-well or 35-mm plates for 24 hours, after which doxycycline was added or treatment with specific inhibitor was administered using […] for 48 hours. After appropriate treatment time, cells were washed with ice-cold phosphate-buffered saline without Ca and Mg (Quality Biological) and then lysed on ice with RIPA buffer (50 mM NaCl, 1.0% o IGEPAL® CA-630, 0.5% o sodium deoxycholate, 0.10% SDS, 50 mM Tris, pH 8.0) (Sigma-Aldrich) supplemented with protease inhibitor tablet (Sigma-Aldrich) and phosphatase inhibitor cocktails 2 and 3 (Sigma-Aldrich) followed by centrifugation at 15,000 rpm for 10 minutes at 4° C. Protein concentrations were determined from the cell lysate by using 660 nm Protein Assay Reagent (Pierce). Cell extracts were denatured, subjected to SDS-PAGE, transferred to PVDF membranes (Bio-Rad) and blocked for 2 hours using 5 bovine serum albumin (BSA) in phosphate-buffered saline and 0.10 Tween® 20 (PBS-T). The membranes were incubated with the specific antibodies overnight in […] at 4° C. followed by a 1 hour incubation with the appropriate horseradish peroxidase-conjugated secondary antibodies and signal was detected by chemiluminescence (Thermo Fisher).
A PathScan® Phospho-SAPK/JNK (Thr183/Tyr185) Sandwich ELISA Assay (Cell Signaling Technology) was used for ELISA assays following the manufacturer's protocol. In general, 500,000 cells were plated and treated with doxycycline the following day where appropriate and incubated at 37° C. for 48 hours. Cells were treated with the drug compound or control in 5% FBS media for 1 hour. After appropriate treatment time, cells were lysed on ice with 1x Cell Lysis Buffer (Cell Signaling Technology) supplemented with phosphatase and protease inhibitors (Sigma). Each diluted cell lysate was added to Phospho-SAPK/JNK (Thr183/Tyr185)Rabbit mAb Coated microwells in triplicate and incubated overnight at 4° C. Samples were treated with the following antibodies and incubated at 37° C. for 1 hour and 30 minutes, respectively: Detection Antibody and HRP-Linked secondary antibody. Samples were washed between treatments using 1× Wash Buffer according to the manufacturer's protocol. TMB substrate was added to each well and incubated at 37° C. for 10 minutes. Following this, STOPsolution was added to each well and absorbance was measured at 450 nm using iMark™ Microplate Absorbance Reader (Bio-Rad). Graphs display relative phospho-JNK levels.

[2] = Parallel artificial membrane permeability assay (PAMPA); assay type: in vitro ADME; settings: for Ratio of mean permeability (×10^4 cm/s) related to low permeability control (atenolol): Table 7
Kinetic solubility assay = assay type: physicochemical; settings: kinetic from dmso stock
[3] = Rat liver microsomal (RLM) stability assay; assay type: in vitro ADME; settings: rat liver microsomes; read-out: RLM Stability (t1/2)
LZK [4] = biological target: T1, LZK; test: LZK degradation (doxycycline-induced LZK expression, immunoblot) in CAL33 cells; assay type: cell-based; set-up: V5 (named only in the vector); expressed in transfected cells; host or cells: CAL33 HNSCC cells, lentiviral T-REx system, induced with doxycycline; settings: for LZK degradation / dox-induced LZK expression: CAL33, doxycycline 48 hours, LZK PROTAC 24 hours, 0-10 μM; for dox-induced LZK expression at high concentrations: 24 hours
Excerpt: as §1, §2

Structure (SMILES) | Ratio of mean permeability (×10^4 cm/s) related to low permeability control (atenolol) [2] | also measured
FC1(F)CCN(c2cc(C3CCNCC3)cc(Nc3cc(C(F)(F)F)ccn3)n2)C1 [LZK inhibitor 1] | – | LZK inhibition in cells, measured by inhibition of downstream JNK pathway activation (LZK [1]; dox-inducible LZK in CAL33 cells): poor LZK inhibitor in cells
Cc1ncsc1-c1ccc([C@H](C)NC(=O)[C@@H]2C[C@@H](O)CN2C(=O)[C@@H](NCc2ccc(C(=O)N3CCC(c4cc(Nc5cc(C#N)ccn5)nc(N5CCC(F)(F)C5)c4)CC3)cc2)C(C)(C)C)cc1 [Compound 13] | 1.31 | –
Cc1ncsc1-c1ccc([C@H](C)NC(=O)[C@@H]2C[C@@H](O)CN2C(=O)[C@@H](NCC(=O)N2CCC(c3cc(Nc4cc(C#N)ccn4)nc(N4CCC(F)(F)C4)c3)CC2)C(C)(C)C)cc1 [Compound 28] | −1.86 | –
Cc1ncsc1-c1ccc([C@H](C)NC(=O)[C@@H]2C[C@@H](O)CN2C(=O)[C@@H](NC(=O)[C@H]2C[C@H](C(=O)N3CCC(c4cc(Nc5cc(C#N)ccn5)nc(N5CCC(F)(F)C5)c4)CC3)C2)C(C)(C)C)cc1 [Compound 24] | 6.74 | –
Cc1ncsc1-c1ccc([C@H](C)NC(=O)[C@@H]2C[C@@H](O)CN2C(=O)[C@@H](NC(=O)c2ccc(C(=O)N3CCC(c4cc(Nc5cc(C#N)ccn5)nc(N5CCC(F)(F)C5)c4)CC3)nn2)C(C)(C)C)cc1 [Compound 21] | −0.11 | –
Cc1ncsc1-c1ccc([C@H](C)NC(=O)[C@@H]2C[C@@H](O)CN2C(=O)[C@@H](NC(=O)c2cncc(C(=O)N3CCC(c4cc(Nc5cc(C#N)ccn5)nc(N5CCC(F)(F)C5)c4)CC3)c2)C(C)(C)C)cc1 [Compound 7] | – | solubility (Kinetic solubility assay): 26 µg/mL (≈ 27.1 µM); Papp ([2]; pH 7.4): < 1 ×10⁻⁶ cm/s; half-life [3]: > 30 min
Cc1ncsc1-c1ccc([C@H](C)NC(=O)[C@@H]2C[C@@H](O)CN2C(=O)[C@@H](NCc2cccc(CN3CCC(c4cc(Nc5cc(C#N)ccn5)nc(N5CCC(F)(F)C5)c4)CC3)n2)C(C)(C)C)cc1 [Compound 9] | −0.46 | –
Cc1ncsc1-c1ccc([C@H](C)NC(=O)[C@@H]2C[C@@H](O)CN2C(=O)[C@@H](NC(=O)[C@H](CCC(=O)N2CCC(c3cc(Nc4cc(C#N)ccn4)nc(N4CCC(F)(F)C4)c3)CC2)NC(=O)C(N)CCCNC(=N)N)C(C)(C)C)cc1 (stereo partly shown) [Compound 29] | 6.74 | –
Cc1ncsc1-c1ccc([C@H](C)NC(=O)[C@@H]2C[C@@H](O)CN2C(=O)[C@@H](NC(=O)[C@H]2CC[C@@H]2C(=O)N2CCC(c3cc(Nc4cc(C#N)ccn4)nc(N4CCC(F)(F)C4)c3)CC2)C(C)(C)C)cc1 (single isomer, unassigned) [Compound 25] | 0.43 | –
Cc1ncsc1-c1ccc([C@H](C)NC(=O)[C@@H]2C[C@@H](O)CN2C(=O)[C@@H](NC(=O)CCC(=O)N2CCC(c3cc(Nc4cc(C#N)ccn4)nc(N4CCC(F)(F)C4)c3)CC2)C(C)(C)C)cc1 [Compound 14] | −0.51 | –
Cc1ncsc1-c1ccc([C@H](C)NC(=O)[C@@H]2C[C@@H](O)CN2C(=O)[C@@H](NC(=O)CCCCC(=O)N2CCC(c3cc(Nc4cc(C#N)ccn4)nc(N4CCC(F)(F)C4)c3)CC2)C(C)(C)C)cc1 [Compound 12] | 0.61 | –
Cc1ncsc1-c1ccc([C@H](C)NC(=O)[C@@H]2C[C@@H](O)CN2C(=O)[C@@H](NC(=O)[C@H]2CC[C@H]2C(=O)N2CCC(c3cc(Nc4cc(C#N)ccn4)nc(N4CCC(F)(F)C4)c3)CC2)C(C)(C)C)cc1 (single isomer, unassigned) [Compound 26] | 1.47 | –
Cc1ncsc1-c1ccc([C@H](C)NC(=O)[C@@H]2C[C@@H](O)CN2C(=O)[C@@H](NC(=O)CCCCCCC(=O)N2CCC(c3cc(Nc4cc(C(F)(F)F)ccn4)nc(N4CCC(F)(F)C4)c3)CC2)C(C)(C)C)cc1 [Compound 4] | – | LZK degradation / dox-induced LZK expression (LZK [4]): ineffective at degrading LZK; dox-induced LZK expression at high concentrations (LZK [4]): slightly decreased dox-induced LZK expression
Cc1ncsc1-c1ccc([C@H](C)NC(=O)[C@@H]2C[C@@H](O)CN2C(=O)[C@@H](NC(=O)c2ccc(C(=O)N3CCC(c4cc(Nc5cc(C#N)ccn5)nc(N5CCC(F)(F)C5)c4)CC3)cc2)C(C)(C)C)cc1 [Compound 15] | −0.14 | –
Cc1ncsc1-c1ccc([C@H](C)NC(=O)[C@@H]2C[C@@H](O)CN2C(=O)[C@@H](NC(=O)c2cc(C(=O)N3CCC(c4cc(Nc5cc(C#N)ccn5)nc(N5CCC(F)(F)C5)c4)CC3)ncn2)C(C)(C)C)cc1 [Compound 20] | −0.01 | –
C[C@@H](C(=O)N[C@H](C(=O)N1C[C@@H](NC(=O)CCCCCCC(=O)N2CCC(c3cc(Nc4cc(C#N)ccn4)nc(N4CCC(F)(F)C4)c3)CC2)C[C@H]1C(=O)N[C@@H]1CCCc2ccccc21)C1CCCCC1)N(C)C(=O)OC(C)(C)C [Compound 30] | 0.05 | LZK degradation / dox-induced LZK expression (LZK [4]): did not degrade LZK; Papp ([2]; Table 7, read-out: Mean permeability): 0.0001 ×10⁻⁶ cm/s
O=C(CCCCCCC(=O)N1CCC(c2cc(Nc3cc(C(F)(F)F)ccn3)nc(N3CCC(F)(F)C3)c2)CC1)NCCCCNC(=O)CNc1cccc2c1C(=O)N(C1CCC(=O)NC1=O)C2=O (stereo not shown) [Compound 5] | – | LZK degradation / dox-induced LZK expression (LZK [4]): ineffective at degrading LZK; dox-induced LZK expression at high concentrations (LZK [4]): slightly decreased dox-induced LZK expression; JNK signaling inhibition by targeted degraders (LZK [1]; CAL33 cells induced with doxycycline, 0-10 μM): inhibited LZK
Cc1ncsc1-c1ccc([C@H](C)NC(=O)[C@@H]2C[C@@H](O)CN2C(=O)[C@@H](NC(=O)N2CCC(c3cc(Nc4cc(C#N)ccn4)nc(N4CCC(F)(F)C4)c3)CC2)C(C)(C)C)cc1 [Compound 27] | 0.01 | –

From patent US20240190838A1, “LZK-TARGETING DEGRADERS AND METHODS OF USE” (The U.S.A., as represented by the Secretary, Department of …, priority 2020, published 2024)
